Experimental data taken from PubChem BioAssay (NCI).
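Grown in 96-well plates, cells were treated for 48 hours with each compound at five concentrations. Insufficient inhibition: endpoint recorded as highest concentration tested. GI50 is the concentration that inhibits growth by half. TGI marks complete inhibition of growth.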

Experiments:
Assay in all cases: NCI anticancer screen, dose series, 48 h
SK-MEL-5 melanoma = system: SK-MEL-5 melanoma
CAKI-1 renal = system: CAKI-1 renal
HCC-2998 colon = system: HCC-2998 colon
HOP-62 NSCLC = system: HOP-62 NSCLC
OVCAR-3 ovarian = system: OVCAR-3 ovarian
M14 melanoma = system: M14 melanoma
SW-620 colon = system: SW-620 colon
SF-295 CNS = system: SF-295 CNS
ACHN renal = system: ACHN renal
HS 578T breast = system: HS 578T breast

**Q.** Which GI50 (SK-MEL-5 melanoma) does the source give for `O=C1/C(=C/c2ccc(F)c(F)c2)CN(C(=O)C(Cl)Cl)C/C1=C\c1ccc(F)c(F)c1` here?
**A.** The GI50 was 190 nM.

**Q.** What about the TGI (SK-MEL-5 melanoma) of the same molecule?
**A.** Its TGI is 380 nM.

**Q.** And the GI50 (CAKI-1 renal)?
**A.** The GI50 was 188 nM.

**Q.** What about the TGI (CAKI-1 renal) of the same molecule?
**A.** Its TGI is 551 nM.

**Q.** What about the GI50 (HCC-2998 colon) of the same molecule?
**A.** The GI50 was 93.4 nM.

**Q.** What about the TGI (HCC-2998 colon) of the same molecule?
**A.** Its TGI is 235 nM.

**Q.** And the GI50 (HOP-62 NSCLC)?
**A.** Its GI50 is 239 nM.

**Q.** What about the TGI (HOP-62 NSCLC) of the same molecule?
**A.** Its TGI is 745 nM.

**Q.** What about the GI50 (OVCAR-3 ovarian) of the same molecule?
**A.** Its GI50 is 70.9 nM.

**Q.** What about the TGI (OVCAR-3 ovarian) of the same molecule?
**A.** The TGI was 234 nM.

**Q.** What about the GI50 (M14 melanoma) of the same molecule?
**A.** The GI50 was 168 nM.

**Q.** What about the TGI (M14 melanoma) of the same molecule?
**A.** The TGI was 515 nM.

**Q.** And the GI50 (SW-620 colon)?
**A.** Its GI50 is 21.5 nM.

**Q.** And the TGI (SW-620 colon)?
**A.** The TGI was 55.4 nM.

**Q.** And the GI50 (SF-295 CNS)?
**A.** Its GI50 is 45.4 nM.

**Q.** And the TGI (SF-295 CNS)?
**A.** The TGI was 210 nM.

**Q.** What about the GI50 (ACHN renal) of the same molecule?
**A.** Its GI50 is 77.6 nM.

**Q.** What about the TGI (ACHN renal) of the same molecule?
**A.** Its TGI is 249 nM.

**Q.** And the GI50 (HS 578T breast)?
**A.** The GI50 was 261 nM.

**Q.** What about the TGI (HS 578T breast) of the same molecule?
**A.** Its TGI is 1010 nM.

**Q.** Which results are given for `CCN1C(=O)N(CC)C2C1NN=c1s/c(=C\c3cccs3)c(=O)n12` (stereo unspecified)?
**A.** GI50 (SK-MEL-5 melanoma): 218 nM; TGI (SK-MEL-5 melanoma): 4260 nM; GI50 (CAKI-1 renal): 74.5 nM; TGI (CAKI-1 renal): > 100000 nM; GI50 (HCC-2998 colon): 257 nM; TGI (HCC-2998 colon): > 100000 nM; GI50 (HOP-62 NSCLC): 302 nM; TGI (HOP-62 NSCLC): > 100000 nM; GI50 (OVCAR-3 ovarian): 46.2 nM; GI50 (M14 melanoma): 105 nM; TGI (M14 melanoma): > 100000 nM; GI50 (SW-620 colon): 66.7 nM; TGI (SW-620 colon): > 100000 nM; GI50 (SF-295 CNS): 69 nM; TGI (SF-295 CNS): > 100000 nM; GI50 (ACHN renal): 253 nM; TGI (ACHN renal): > 100000 nM; GI50 (HS 578T breast): 112 nM

**Q.** Which TGI (SK-MEL-5 melanoma) does the source give for `CCOc1cc(C(=O)O)c2c(ccc3ccc(OC)c(OC)c32)c1OC` here?
**A.** Its TGI is over 100000 nM.

**Q.** What about the TGI (CAKI-1 renal) of the same molecule?
**A.** Its TGI is over 100000 nM.

**Q.** What about the TGI (HCC-2998 colon) of the same molecule?
**A.** Its TGI is over 100000 nM.

**Q.** And the TGI (HOP-62 NSCLC)?
**A.** Its TGI is over 100000 nM.

**Q.** And the TGI (OVCAR-3 ovarian)?
**A.** Its TGI is over 100000 nM.

**Q.** What about the TGI (M14 melanoma) of the same molecule?
**A.** Its TGI is over 100000 nM.

**Q.** And the TGI (SW-620 colon)?
**A.** Its TGI is over 100000 nM.

**Q.** And the TGI (SF-295 CNS)?
**A.** Its TGI is over 100000 nM.

**Q.** And the TGI (ACHN renal)?
**A.** Its TGI is over 100000 nM.

**Q.** And the TGI (HS 578T breast)?
**A.** The TGI was over 100000 nM.

**Q.** For `CC(=Nc1ccccc1)C1=C(O)C(Cc2cccc(F)c2)NC1=O` (stereo unspecified), which GI50 (SK-MEL-5 melanoma) is on record?
**A.** Its GI50 is 34.3 nM.

**Q.** And the TGI (SK-MEL-5 melanoma)?
**A.** The TGI was 1820 nM.

**Q.** What about the GI50 (CAKI-1 renal) of the same molecule?
**A.** Its GI50 is 49 nM.

**Q.** And the TGI (CAKI-1 renal)?
**A.** Its TGI is over 100000 nM.

**Q.** What about the GI50 (HCC-2998 colon) of the same molecule?
**A.** Its GI50 is 144 nM.

**Q.** What about the TGI (HCC-2998 colon) of the same molecule?
**A.** The TGI was 3100 nM.

**Q.** What about the GI50 (HOP-62 NSCLC) of the same molecule?
**A.** The GI50 was 55.7 nM.

**Q.** What about the TGI (HOP-62 NSCLC) of the same molecule?
**A.** Its TGI is over 100000 nM.

**Q.** What about the GI50 (M14 melanoma) of the same molecule?
**A.** Its GI50 is 48.7 nM.

**Q.** What about the TGI (M14 melanoma) of the same molecule?
**A.** Its TGI is over 100000 nM.

**Q.** And the GI50 (SW-620 colon)?
**A.** The GI50 was 41.9 nM.

**Q.** What about the TGI (SW-620 colon) of the same molecule?
**A.** Its TGI is over 100000 nM.

**Q.** What about the GI50 (SF-295 CNS) of the same molecule?
**A.** Its GI50 is 31.2 nM.

**Q.** And the TGI (SF-295 CNS)?
**A.** The TGI was 184 nM.

**Q.** And the GI50 (ACHN renal)?
**A.** The GI50 was 69.4 nM.

**Q.** And the TGI (ACHN renal)?
**A.** Its TGI is over 100000 nM.

**Q.** And the GI50 (HS 578T breast)?
**A.** The GI50 was 50.1 nM.

**Q.** And the TGI (HS 578T breast)?
**A.** The TGI was over 100000 nM.

**Q.** How did the TGI (SK-MEL-5 melanoma) turn out when `Cc1cc2c(cc1C)[n+](=O)c(C(=O)/C=C/c1ccc3c(c1)OCO3)c(C)n2[O-]` was run?
**A.** The TGI was over 100000 nM.

**Q.** What about the TGI (CAKI-1 renal) of the same molecule?
**A.** The TGI was over 89000 nM.

**Q.** And the TGI (HCC-2998 colon)?
**A.** Its TGI is over 100000 nM.

**Q.** What about the TGI (HOP-62 NSCLC) of the same molecule?
**A.** Its TGI is 59100 nM.

**Q.** And the TGI (OVCAR-3 ovarian)?
**A.** Its TGI is over 100000 nM.

**Q.** And the TGI (M14 melanoma)?
**A.** Its TGI is over 100000 nM.

**Q.** And the TGI (SW-620 colon)?
**A.** The TGI was over 100000 nM.

**Q.** What about the TGI (SF-295 CNS) of the same molecule?
**A.** The TGI was 50000 nM.

**Q.** What about the TGI (ACHN renal) of the same molecule?
**A.** Its TGI is over 75800 nM.

**Q.** And the TGI (HS 578T breast)?
**A.** Its TGI is 64000 nM.

**Q.** `O=P(O)(O)OCC1OC(n2cnc3c(NCc4ccco4)ncnc32)C(O)C1O` (stereo unspecified) was tested. Which GI50 (SK-MEL-5 melanoma) did it give?
**A.** The GI50 was 3890 nM.

**Q.** And the TGI (SK-MEL-5 melanoma)?
**A.** Its TGI is over 37400 nM.

**Q.** What about the GI50 (CAKI-1 renal) of the same molecule?
**A.** Its GI50 is 596 nM.

**Q.** And the TGI (CAKI-1 renal)?
**A.** Its TGI is 3010 nM.

**Q.** And the GI50 (HCC-2998 colon)?
**A.** The GI50 was 3610 nM.

**Q.** And the TGI (HCC-2998 colon)?
**A.** The TGI was over 30200 nM.

**Q.** What about the GI50 (HOP-62 NSCLC) of the same molecule?
**A.** The GI50 was 2240 nM.

**Q.** What about the TGI (HOP-62 NSCLC) of the same molecule?
**A.** Its TGI is 19400 nM.

**Q.** And the GI50 (OVCAR-3 ovarian)?
**A.** The GI50 was 422 nM.

**Q.** And the TGI (OVCAR-3 ovarian)?
**A.** The TGI was 1650 nM.

**Q.** What about the GI50 (M14 melanoma) of the same molecule?
**A.** Its GI50 is 3550 nM.

**Q.** And the TGI (M14 melanoma)?
**A.** The TGI was over 41000 nM.

**Q.** What about the GI50 (SW-620 colon) of the same molecule?
**A.** Its GI50 is 993 nM.

**Q.** And the TGI (SW-620 colon)?
**A.** The TGI was over 44300 nM.

**Q.** And the GI50 (SF-295 CNS)?
**A.** The GI50 was 2530 nM.

**Q.** What about the TGI (SF-295 CNS) of the same molecule?
**A.** The TGI was over 35100 nM.

**Q.** What about the GI50 (ACHN renal) of the same molecule?
**A.** Its GI50 is 2200 nM.

**Q.** And the TGI (ACHN renal)?
**A.** The TGI was over 100000 nM.

**Q.** What about the GI50 (HS 578T breast) of the same molecule?
**A.** The GI50 was 802 nM.

**Q.** And the TGI (HS 578T breast)?
**A.** The TGI was 7170 nM.

**Q.** `CCC#CC[C@H](O)C/C=C1/C(=O)C=C[C@@H]1C/C=C\CCCC(=O)OC` was tested. Which GI50 (SK-MEL-5 melanoma) did it give?
**A.** Its GI50 is 767 nM.

**Q.** What about the TGI (SK-MEL-5 melanoma) of the same molecule?
**A.** The TGI was 1460 nM.

**Q.** And the GI50 (CAKI-1 renal)?
**A.** Its GI50 is 1480 nM.

**Q.** And the TGI (CAKI-1 renal)?
**A.** The TGI was 4650 nM.

**Q.** And the GI50 (HCC-2998 colon)?
**A.** Its GI50 is 1070 nM.

**Q.** What about the TGI (HCC-2998 colon) of the same molecule?
**A.** The TGI was 1890 nM.

**Q.** What about the GI50 (HOP-62 NSCLC) of the same molecule?
**A.** Its GI50 is 1560 nM.

**Q.** And the TGI (HOP-62 NSCLC)?
**A.** The TGI was 4490 nM.

**Q.** What about the GI50 (OVCAR-3 ovarian) of the same molecule?
**A.** Its GI50 is 1550 nM.

**Q.** And the TGI (OVCAR-3 ovarian)?
**A.** The TGI was 6110 nM.

**Q.** What about the GI50 (M14 melanoma) of the same molecule?
**A.** The GI50 was 1320 nM.

**Q.** What about the TGI (M14 melanoma) of the same molecule?
**A.** Its TGI is 5120 nM.

**Q.** And the GI50 (SW-620 colon)?
**A.** The GI50 was 1490 nM.

**Q.** What about the TGI (SW-620 colon) of the same molecule?
**A.** Its TGI is 4830 nM.

**Q.** What about the GI50 (SF-295 CNS) of the same molecule?
**A.** Its GI50 is 1280 nM.

**Q.** What about the TGI (SF-295 CNS) of the same molecule?
**A.** The TGI was 3150 nM.

**Q.** And the GI50 (ACHN renal)?
**A.** Its GI50 is 947 nM.

**Q.** And the TGI (ACHN renal)?
**A.** The TGI was 2070 nM.

**Q.** What about the GI50 (HS 578T breast) of the same molecule?
**A.** The GI50 was 4300 nM.

**Q.** And the TGI (HS 578T breast)?
**A.** The TGI was 46600 nM.
